Entries after “also recorded” stand apart in the source; their conditions may differ.
Tests used:
[1] = tested on: U118MG cells; test: Protection against cell death induced by glutamate in U118MG cell culture; type: cell-based, human; conditions: for protection against cell death induced by glutamate: U118MG cells, 35 mM glutamate, compound 1-100 μM; for Protection against glutamate-induced cell death: cell culture, grade in words
Experimental: (§1) Cell cultures of various human glial type cell lines (T98G, U87MG, A172, U118MG), as well as human neuronal type cell lines SH-SY 5Y and Be(2)-C were used to test the new compounds. In addition, the rat glioma cell line C6 was used. PC12 cells originating from rats were used as another cell line displaying neuronal characteristics. The applicants also have produced, by genetic manipulation, a modified rat C6 glial cell strain and a modified human U118MG glial type cell strain, both under-expressing the TSPO, which allows to study TSPO specific effects, including of the compounds of the invention, which can be done according to methods described previously (Weisinger et al. Biochemistry. 2004; 43:12315-21; Levin et al. 2005; Zeno et al., 2009).
The protective capabilities of the compounds of the invention and involvement of the TSPO were tested in cell culture, using cell lines of glial and neuronal type, cultured and testing according to standard methods (Kugler et al. 2008; Zeno et al. 2009; Dadon-Nachum et al. Stem Cell Rev. 2011; 7:664-71). Furthermore, primary cell cultures are also used (Banker, G. et al. Culturing Nerve Cells, 2nd Edition, The MIT Press (1998). Treatments included: (1) exposure to glutamate (35 mM), Abeta(1-42), NH4Cl, CoCl2, and nitric oxide (NO) donors, in order to mimic particular aspects of neurodegeneration; (2) treatment with the novel compounds and with traditional TSPO ligands as comparative treatment; and (3) TSPO knockdown by genetic manipulation.
Techniques and parameters assayed are summarized here: Total protein levels (Bradford. Anal Biochem. 1976; 72:248-54); TSPO ligand binding assays (Kugler et al. 2008; Levin et al. 2005; Danovich et al. Eur Neuropsychopharmacol. 2008; 18:24-33) cell death, including apoptosis and necrosis and related molecular biological processes (Soustiel et al. Neuropathol Appl Neurobiol. 2008; 34:412-23; Soustiel et al. Exp Neurol. 2008; 214:201-8; Zeno et al. 2009); mitochondrial transmembrane potential collapse (Chelli et al. Biochem Pharmacol. 2004; 68:125-34; Kugler et al. 2008; Zeno et al., 2009; Shargorodsky et al. Apoptosis. 2012; 17:647-65), reactive oxygen species (ROS) generation as a measure of oxidative stress (Veenman et al. 2008; Zeno et al. 2009); TSPO knockdown (Levin et al. 2005; Zeno et al. 2009); expression levels of mitochondrial TSPO and associated proteins (Veenman et al. 2002; Levin et al. 2005; Veenman et al. 2008); gene expression with RT-PCR and microarray analysis (Bode et al. 2012; Veenman et al. 2012). Parameters of inflammation, immune response, migration, and the cell cycle are also tested. All these approaches can also be applied for quality control of the compounds.
The compounds of the invention protect against cell death induced by glutamate in cell culture of U118MG cells of astrocytic origin (FIGS. 1, 2, 3 and 8) or SH SY 6Y cells of neuronal origin (FIG. 4). […] In the control group, 35 mM of glutamate killed ˜60% of the cells.
The experimental setup is explained using FIG. 8B as an example: • 1. Control: Cell death levels are taken as 0% • 2. Glu: Cell death levels induced by glutamate are over 50% • 3. […] Glu+Cpd 5: When Cpd 5 is given as a treatment to counteract cell death induced by glutamate, increasing concentrations of Cpd 5 reduce cell death levels from over 50% to less than 5%.

[2] = tested on: R6-2 mice; test: Incidence of tremor in R6-2 mice; type: in vivo, mouse
Description: (§2) Apart from the behavioral experiments, mice were observed daily, and the day of death was noted. Behavioral experiments included distance covered in an open field apparatus, and tremor measurements.
To assay incidence of tremor in R6-2 mice of the experiments for this invention, the StartleMonitor of Kinder Scientific (Poway, Calif.), with specific software to assay and present force pressure changes in newtons, was used.

[3] = biological target: TSPO (Homo sapiens (Human), UniProt P30536); type: binding; conditions: displacement of [3H]PK 11195 from TSPO
Sequence of TSPO (P30536 whole entry): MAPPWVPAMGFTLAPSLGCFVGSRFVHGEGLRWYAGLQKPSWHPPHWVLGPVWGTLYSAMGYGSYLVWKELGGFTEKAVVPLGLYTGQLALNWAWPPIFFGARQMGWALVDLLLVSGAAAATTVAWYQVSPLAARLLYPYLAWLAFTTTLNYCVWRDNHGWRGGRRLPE
Experimental: Briefly, the assay utilizes radioactive standard ligand [^3H] PK 11195 (1-(2-chlorophenyl)-N-methyl-N-(1-methyl-propyl)-3 isoquinolinecarboxamide), and measures the ability of the compounds of the invention to displace standard ligand in binding to TSPO. Total radioactive binding was determined by measuring the radioactivity of the radioactive ligand-receptor complex, obtained in the reaction of radioactive standard with the TSPO. Radioactive standard and the examined compound were added to the TSPO and after some incubation time the radioactivity of the resulting ligand-receptor complexes was measured with the help of a […]. This radioactivity indicates the binding of the radioactive standard to TSPO. […] This can be expressed as the half maximal inhibitory concentration (IC50), which is a measure of the effectiveness of a compound in inhibiting biological or biochemical function, in this case inhibiting binding of standard radioactive ligand binding to the TSPO. A derivative of the IC50 is the Ki, which is the calculated binding affinity of the novel compound to the TSPO.
Binding to TSPO was evaluated using a [^3H]PK 11195 radio-assay, as described above.

[4] = tested on: R6-2 mice; test: Lifespan of R6-2 mice, transgenic model for Huntington Disease; type: in vivo, mouse; conditions: for effect on lifespan: daily s.c. injections 5 days a week from week 5, vs DMSO and saline
Description: For the assays described herein systemic injections of kainic in rats were applied and also contusion (Veenman et al. 2002; Soustiel et al. Neuropathol Appl Neurobiol. 2008; Soustiel et al. Exp Neurol. 2008). These models present very well defined cell death in the brain. Cell death in the brain is the major pathological characteristic of progressing neurodegeneration common to brain diseases. As the compounds of the present invention are designed to prevent cell death in the brain as a consequence of disease and progressing brain damage after injury, including behavioral impairments, animal models displaying cell death in the brain are the models of choice for displaying the protective capabilities of the compounds of the invention. For these reasons the R6-2 model for Huntington Disease was chosen to test the effectiveness of Compound 1 and to compare the effectiveness of Compound 1 with those of the compound of U.S. Pat. No. 8,541,428 (Cpd A) and with the classical TSPO ligand PK 11195, as well as other compounds disclosed herein. Compounds 5 and 6 were also tested in the same R6-2 model.
R6-2 is a transgenic mouse model for Huntington Disease. Huntington Disease in humans is a hereditary neurodegenerative disease affecting motor performance and finally leading to death of the patients having the disease. R6-2 mice (˜120 CAG repeats B6CBA-Tg(HDexon1)62 Gpb/3J) mice were used for the experiments described below. For this purpose, mice obtained from the Jackson Laboratory (ME) were bred. In particular: males genotype: Hemizygous for Tg(HDexon1)62 Gpb, and females from the wildtype background strain B6CBAF1/J were bred according to the protocol of Jackson Laboratory. The male heterozygote offspring (R6-2 mice) were used for determining life span and motor activity, with and without drug treatment. Drug treatment consisted of daily (5 continuous days a week) subcutaneous injections of mice with 20 μl of: saline (sham control), vehicle DMSO (vehicle control), classic TSPO ligand PK 11195 (15 mg/kg), prior art Compound A (15 mg/kg), Compound 1 (15 mg/kg), and compound 1 (7.5 mg/kg). Drug treatment started on week 5 after birth. Quantities were used according to previous studies regarding TSPO ligands.
as §2
R6-2 mice were used as previously described in Example 5. In one experiment, treatment consisted of daily (5 continuous days per week) subcutaneous injections of mice with 20 μl of vehicle DMSO (control, n=10) and Compound 6 (7.5 mg/kg, n=12). In a separate experiment, compound 5 (7.5 mg/kg, n=5) was tested, compared to DMSO control (n=5).

[5] = tested on: SH SY 6Y cells; test: Protection of SH SY 6Y neuronal cells against lethal effects of glutamate; type: cell-based, human
Experimental: as §1
The protective capabilities of the compounds of the invention and involvement of the TSPO were tested in cell culture, using cell lines of glial and neuronal type, cultured and testing according to standard methods (Kugler et al. 2008; Zeno et al. 2009; Dadon-Nachum et al. Stem Cell Rev. 2011; 7:664-71). […]

SMILES | lethal effects of compound at high concentration ([1]; 100 μM compound alone, halogenated vs unhalogenated analog) | protection against cell death induced by glutamate [1] | protection against cell death induced by glutamate ([1]; listed as Cpd 5) | Protection against glutamate-induced cell death [1] | cell death levels induced by compound by itself ([1]; compound alone, no glutamate) [%] | cell death effect of glutamate at high compound concentration ([1]; glutamate plus 100 μM compound, halogenated vs unhalogenated analog) | cell death levels, Glu + compound ([1]; glutamate plus increasing concentrations of compound, glutamate alone over 50%) | incidence of tremor activity [2] | Ki [3] [µM] | mice living up to 18 weeks ([4]; 7.5 mg/kg s.c.) [%] | mice still alive at 11th week ([4]; 7.5 mg/kg s.c., >50% of DMSO mice dead) [%] | mice still alive at 12 weeks ([4]; 7.5 mg/kg s.c., all DMSO mice dead) [%] | effect on lifespan [4] | effect on lifespan ([4]; listed as compound 5) | protection against lethal effects of glutamate [5]
CN(C)C(=O)Oc1nc(-c2ccccc2Cl)nc2ccccc12 [Compound 5, 2-(2-chlorophenyl)quinazolin-4-yl dimethylcarbamate] | reduces lethal effects; also recorded: reduces cell death effects; also recorded: least adverse side effects | protect better and more consistently; also recorded: superior over the rest of the compounds | improves protection | Excellent | ≤ 5 | reduces cell death effect of glutamate in cultures even further | less than 5% | tremor reducing effects; also recorded: reduced the incidence of tremor activity | ~0.6 | 20 | 100 | 50 | increase the average lifespan; also recorded: extends the life span | robust lifespan enhancing | 
CCN(CC)C(=O)Oc1nc(-c2ccc(Br)cc2)nc2ccccc12 [Compound 4, 2-(4-bromophenyl)quinazolin-4-yl diethylcarbamate] |  |  |  | Good |  |  |  |  | ~0.045 |  |  |  |  |  | protects neuronal cells
